Tests used:
CKD mice [1] = assay: Kidney renal fibrosis marker qRT-PCR and H&E histology in CKD mice; assay type: in vivo, mouse
Description: To assess histological changes in kidneys due to renal injury, Hematoxylin and Eosin (H&E) staining was performed. The kidneys resected from the mice were fixed using formalin (10%) for three hours. Tissues were embedded using Tissue-Plus OCT (Fisher Scientific, 23-730-571). The samples were cryosectioned with a thickness of 12 μm and stained using rapid chrome H&E staining kit (Thermo Scientific, 9990001).
To isolate RNA from the resected kidneys, the tissues were homogenized using a grinder (Sigma, Z529672) and lysed in 1 mL TRIzol solution. After 10 min incubation at room temperature, the samples were centrifuged at 12,000×g for 10 min at 4° C. The supernatants were collected and 200 μL of chloroform (Sigma Aldrich, C2432) were added to each sample. The samples were vortexed, incubated at room temperature for 10 min, and centrifuged for 15 min at 12,000×g, 4° C. The aqueous phase was collected from each sample and 500 μL of isopropanol was added; the samples were vortexed, incubated for 15 min at room temperature following by 15 min on ice, and centrifuged at 21,000×g for 15 min. The supernatants were discarded, and pellets were washed twice with 500 μL cold ethanol (75% v/v) and centrifuged at 21,000×g for 5 min. The isolated RNA templates were heated at 65° for 15 min, and the concentrations were measured using a spectrophotometer (NanoDrop Lite, Thermo scientific). Power SYBR Green RNA-to-CT 1-Step Kit with 100 ng isolated template RNA per reaction was used.
The following mouse primer sequences were purchased from Eurofins Scientific; Gapdh Forward: AACGACCCCTTCATTGAC (SEQ ID NO: 9) and Reverse: TCCACGACATACTCAGCAC (SEQ ID NO: 10); Colla1 Forward: […] (SEQ ID NO: 11) and Reverse: […] (SEQ ID NO: 12); Tgfb1 Forward: […] (SEQ ID NO: 13) and Reverse: CAGCAGCCGGTTACCAAG (SEQ ID NO: 14).

CKD mice [2] = assay: Femur X-ray CT bone thickness and bone volume fraction in CKD mice; assay type: in vivo, mouse
Description: Femurs were dissected from mice, wrapped in parafilm and imaged directly in a Nikon XT H 225 scanner (macro-CT, Nikon Metrology, Tring, UK). The raw transmission images were reconstructed using commercial image reconstruction software package (CT Pro 3D, Nikon Metrology, Tring, UK), which employs a filtered back-projection algorithm. The scan was performed using 80 kV beam energy, 70 μA beam current, and a power of 5.6 W. A PerkinElmer 1620 flat panel detector was used, with 200 μm pixel size. The resulting effective pixel size was 5 μm. The exposure time per projection was 0.5 s, and a total of 1601 projections were acquired, resulting in a scanning time of approximately 13 minutes per sample. Bone structural parameters, including thickness and volume fraction (the ratio of bone volume (BV) to total volume (TV)), for both cortical and trabecular regions were assessed using a plug-in module, BoneJ, in ImageJ (NIH, USA).

Osteoblasts (hFOB 1.19) = assay: In vitro calcification of osteoblasts, Alizarin Red S staining; assay type: cell-based, human; details: OS + 2.5 μM vs OS, 21 days; p=0.86
Description: Osteoblasts (from human fetus, hFOB 1.19, ATCC, CRL-11372) were cultured and grown in DMEM containing 10% v/v bovine calf serum and 1% v/v penicillin-streptomycin. Osteoblasts (passage 4-6) were harvested using 0.25% trypsin-EDTA solution (Caisson Labs, TRL01), seeded with a density of 5,200 cell.cm^−2, and incubated for 24 hours at 37° C. and 5% CO2 with controlled humidity. The cells were treated in three groups of control, OS, and OS supplemented with tyrphostin AG1478 (2.5 μM) for 21 days and media changed every three days. […] Similar to the VSMC experiments, EV-free media were added to the cultures on days 6, 13, and 20, and collected 24 hours later on days 7, 14, and 21. Collected media were centrifuged at 1,000×g for 5 min to remove cell debris. EVs were isolated using the ultracentrifugation at 100,000×g for 1 hour.
At the end of experiments (28 and 21 days of treatment on VSMCs and osteoblasts, respectively), media were removed, and the cells were fixed using Formalin (10%, Fisher Chemical, SF100). To visualize in vitro calcification, Alizarin Red S stain (ARS, Ricca, 500-32) was added to the wells and incubated for 30 min at room temperature. […]
To quantify the in vitro calcification, ARS stain was extracted using acetic acid (1.67 M, Fisher Chemical, A38S) on a shaker. […] Sample absorbance of 405 nm was measured using a multi-mode reader (BioTek, Synergy HTX).

COc1cc2ncnc(Nc3cccc(Cl)c3)c2cc1OC [AG1478, tyrphostin AG1478]
expression of common markers of renal injury (CKD mice [1]; CKD mice): does not reduce | Gene expression of renal fibrosis marker Colla1 (CKD mice [1]; kidney, CKD mice treated vs CKD, p=0.6): no significant differences | Gene expression of renal fibrosis marker Tgfb1 (CKD mice [1]; kidney, CKD mice treated vs CKD, p=0.7): no significant differences | thickness of cortical bone (CKD mice [2]; CKD mice treated vs CKD, p=0.004): increased | thickness of trabecular bone, metaphysical region (CKD mice [2]; CKD mice treated vs CKD, p=0.02): increased | thickness of trabecular bone, epiphyseal region (CKD mice [2]; CKD mice treated vs CKD, p=0.04): increased | bone volume fraction in trabecular bone, metaphysical region (CKD mice [2]; compared to CKD animals, p=0.002): increased | bone volume fraction in trabecular bone, epiphyseal region (CKD mice [2]; compared to CKD animals, p=0.009): increased | bone volume fraction in cortical bone (CKD mice [2]; compared to CKD animals, p=0.25): did not significantly change | quantification of the in vitro calcification of osteoblasts (Alizarin red) (Osteoblasts (hFOB 1.19)): no significant difference
